From patent publication US12071441B2, “10-(di(phenyl)methyl)-4-hydroxy-8,9,9A,10-tetrahydro-7H-pyrrolo[1′,2′:4,5]pyrazino[1,2-b]pyridazine-3,5-dione derivatives and related compounds as inhibitors of the orthomyxovirus replication for treating influenza” (Novartis AG, priority 2018, dated 2024)

Assays:
Experiment in all cases: microbe, parasite or virus in culture
Type in all cases: cell-based
[1] = system: influenza A virus minigenome (PB2, PB1, PA, NP; luciferase reporter) in 293T cells, RNP_CAL; settings: HEK-293T, 48 h, read-out: RNP_CAL_EC50
[2] = system: influenza A virus minigenome (PB2, PB1, PA, NP; luciferase reporter) in 293T cells, RNP_Alaska; settings: HEK-293T, 48 h
[3] = system: influenza A virus minigenome (PB2, PB1, PA, NP; luciferase reporter) in 293T cells, RNP_Hubei; settings: HEK-293T, 48 h

Measured: EC50

CC(C)CC(=O)OCOc1c2n(ncc1=O)[C@@H]([C@H](c1ccccc1)c1cccc(F)c1F)[C@H]1CCCN1C2=O [Example 72, (((9aR,10S)-10-((R)-(2,3-difluorophenyl)(phenyl)methyl)-3,5-dioxo-3,5,8,9,9a,10-hexahydro-7H-pyrrolo[1′,2′:4,5]pyrazino[1,2-b]pyridazin-4-yl)oxy)methyl 3-methylbutanoate]
< 100 nM: all assays above

COc1ccccc1[C@H](c1ccc(F)cc1)[C@H]1[C@H]2CCCN2C(=O)c2c(O)c(=O)cnn21 [Example 6, (9aR,10S)-10-((S)-(4-fluorophenyl)(2-methoxyphenyl)methyl)-4-hydroxy-8,9,9a,10-tetrahydro-7H-pyrrolo[1′,2′:4,5]pyrazino[1,2-b]pyridazine-3,5-dione]
100 to 1000 nM: all assays above

CCN(CC)C(=O)OCOc1c2n(ncc1=O)[C@@H]([C@H](c1ccccc1)c1cccc(F)c1F)[C@H]1CCCN1C2=O [Example 67, (((9aR,10S)-10-((R)-(2,3-difluorophenyl)(phenyl)methyl)-3,5-dioxo-3,5,8,9,9a,10-hexahydro-7H-pyrrolo[1′,2′:4,5]pyrazino[1,2-b]pyridazin-4-yl)oxy)methyl diethylcarbamate]
≥ 1000 nM: all assays above

CC(C)C(=O)Oc1c2n(ncc1=O)[C@@H]([C@H](c1cccc(F)c1)c1cccc(F)c1F)[C@H]1CCCN1C2=O [Example 107, (9aR,10S)-10-((R)-(2,3-difluorophenyl)(3-fluorophenyl)methyl)-3,5-dioxo-3,5,8,9,9a,10-hexahydro-7H-pyrrolo[1′,2′:4,5]pyrazino[1,2-b]pyridazin-4-yl isobutyrate]
< 100 nM: all assays above

CC(C)CC(=O)Oc1c2n(ncc1=O)[C@@H]([C@H](c1cccc(F)c1)c1cccc(F)c1F)[C@H]1CCCN1C2=O [Example 110, (9aR,10S)-10-((R)-(2,3-difluorophenyl)(3-fluorophenyl)methyl)-3,5-dioxo-3,5,8,9,9a,10-hexahydro-7H-pyrrolo[1′,2′:4,5]pyrazino[1,2-b]pyridazin-4-yl 3-methylbutanoate]
< 100 nM: all assays above

O=C1c2c(O)c(=O)cnn2[C@@H]([C@@H](c2ccc(F)cc2)c2ccc(C(F)(F)F)cc2)[C@H]2CCCN12 [Example 2, (9aR,10S)-10-((R)-(4-fluorophenyl)(4-(trifluoromethyl)phenyl)methyl)-4-hydroxy-8,9,9a,10-tetrahydro-7H-pyrrolo[1′,2′:4,5]pyrazino[1,2-b]pyridazine-3,5-dione]
100 to 1000 nM: all assays above

COc1ccc([C@@H](c2ccc(F)cc2)[C@H]2[C@H]3CCCN3C(=O)c3c(O)c(=O)cnn32)cc1 [Example 26, (9aR,10S)-10-((S)-(4-fluorophenyl)(4-methoxyphenyl)methyl)-4-hydroxy-8,9,9a,10-tetrahydro-7H-pyrrolo[1′,2′:4,5]pyrazino[1,2-b]pyridazine-3,5-dione]
100 to 1000 nM: all assays above

COCCOC(=O)Oc1c2n(ncc1=O)[C@@H]([C@H](c1cccc(F)c1)c1cccc(F)c1F)[C@H]1CCCN1C2=O [Example 97, (9aR,10S)-10-((R)-(2,3-difluorophenyl)(3-fluorophenyl)methyl)-3,5-dioxo-3,5,8,9,9a,10-hexahydro-7H-pyrrolo[1′,2′:4,5]pyrazino[1,2-b]pyridazin-4-yl (2-methoxyethyl) carbonate]
< 100 nM: all assays above

CCN(C)C(=O)OCOc1c2n(ncc1=O)[C@@H]([C@H](c1ccccc1)c1cccc(F)c1F)[C@H]1CCCN1C2=O [Example 68, (((9aR,10S)-10-((R)-(2,3-difluorophenyl)(phenyl)methyl)-3,5-dioxo-3,5,8,9,9a,10-hexahydro-7H-pyrrolo[1′,2′:4,5]pyrazino[1,2-b]pyridazin-4-yl)oxy)methyl ethyl(methyl)carbamate]
≥ 1000 nM: all assays above

COCCOC(=O)OCOc1c2n(ncc1=O)[C@@H]([C@H](c1ccc(F)cc1)c1cccc(F)c1F)[C@H]1CCCN1C2=O [Example 86, (((9aR,10S)-10-((R)-(2,3-difluorophenyl)(4-fluorophenyl)methyl)-3,5-dioxo-3,5,8,9,9a,10-hexahydro-7H-pyrrolo[1′,2′:4,5]pyrazino[1,2-b]pyridazin-4-yl)oxy)methyl (2-methoxyethyl) carbonate]
< 100 nM: all assays above
